Laboratory results as given in patent US6528309B2, “Vacuum-mediated desiccation protection of cells” (The Regents of the University of California, priority 2001, dated 2003).
Like-named read-outs stand apart in the source and are kept apart here.

Tests used:
[1] = test system: Basinger human fibroblasts; test: Drying tolerance of Basinger human fibroblasts with disaccharides and polyols (trypan blue exclusion); assay type: cell-based; details: for Cell Culture Survival (%): concentration (50 mM or 10% solution), vacuum; for effectiveness in protecting the viability of the cells (in words): trypan blue exclusion
Protocol: (§1) Trypan blue exclusion was done by adding 10 μl of 0.4% trypan blue in 0.85% NaCl (Gibco BRL) to 10 μl of a single cell suspension of trypsinized cells and counting the number of trypan blue positive and negative cells. Colony assays were done by harvesting adherent cells 8-12 hours after rehydration, counting by hemacytometer, and plating either 200 or 300 cells in a 10 cm tissue culture dish. The same number of cells from a non-desiccated control were plated in parallel. Approximately 1 week later, the plates were stained with Giemsa and the colonies were counted.

[2] = test system: Basinger cells; test: Colony (plating efficiency) assay after desiccation and rehydration; assay type: cell-based, human; details: for ability to mediate desiccation tolerance, singly and together (in words): 3% glycerol and/or 50 mM trehalose, thermal shock, vacuum (FIG. 8); for ability of the cells to form colonies following rehydration: results not shown
Protocol: as §1
To definitively determine the effect of different desiccation protocols, an assay based on colony formation (i.e., “plating efficiency”) was used, as described in the following Examples. In this assay, rehydrated cells were replated at low density and the number of distinct colonies counted. In this way, only rehydrated cells able to undergo cell division were counted as “viable.” The pattern of viability determined by trypan blue exclusion and colony assay were the same (e.g., compare FIG. 2A with FIG. 2B), validating the use of trypan blue to measure the effect of various treatments on cell viability.
In subsequent experiments, trehalose was tested in combination with glycogen, glycerol, and sucrose. As for some anhydrobiotic organisms (e.g., Artemia cysts) glycerol accounts for about 4% of their dry weight and trehalose constitutes up to about 14% of their dry weight, these experiments were conducted to determine the effects of these compounds on cell survival. In this Figure, results are shown for Basinger cells plated in 6-well plates and exposed to 3% glycerol and/or 50 mM trehalose immediately prior to undergoing thermal shock and desiccation under vacuum. After the drying period was complete, media were added and the cells were incubated overnight. The following day, the cells were harvested and plated for viability determination using the colony assay described herein.

[3] = test system: 12F cells; test: Preliminary vacuum drying experiments; assay type: cell-based
[4] = test system: 12F cells; test: Desiccation tolerance of 12F cells at different storage temperatures, with trehalose (trypan blue exclusion / FACS); assay type: cell-based, human; details: for Cell Survival: trehalose 50 mM by thermal shock, dried under vacuum
Protocol: as §1
For thermal shock experiments, trehalose solution (50 mM final concentration) in DMEM and 10% FBS, was added to a pellet of 1×10^6 cells to produce a cell suspension which was then incubated on ice for 5 minutes, and then for 10 minutes in a 37° C. water bath (Daw et al., Cryobiol., 10:126-133 [1973]; and Moore et al., Cell 54:777-785 [1988]). This cycle was repeated twice. For adherent cells, the cells were plated in 6-well plates and grown to 90-95% confluence prior to thermal shock with 50 mM trehalose as described above. These methods are described in more detail in the following Examples. However, it is not intended that the present invention be limited to any particular temperatures used for thermal shock, as it is known in the art that in some cases, cells can be shocked using different temperatures.
In these experiments, the effects of temperature and drying on cell survival were investigated. In addition, the effects of the presence of trehalose on cell survival under different conditions of temperature and drying were investigated. Ten 6-well plates of 12F cells were prepared at about 90-95 confluence. The day prior to the beginning of the drying period, five plates were exposed to thermal shock to introduce trehalose into the cells (as described above). On the first day of the drying period, all of the plates were dried, and the plates were incubated in pairs (i.e., one with trehalose and one without trehalose) at −70° C., −20° C., room temperature, and 37° C., for 4 days.
In additional experiments to determine the effect of temperature on the ability of cells to withstand desiccation, 6-well plates with 12F cells were prepared at approximately 90% confluence, dried under vacuum at room temperature as described above, and stored at −70° C., −20° C., 4° C., 20° C., and 37° C. for 3 days. In these experiments, two plates were used, one included trehalose (50 mM) introduced into the cells using thermal shock, as described above. […] The cells were then rehydrated and the viability was determined by trypan blue exclusion. […] The optimum survival temperature was determined to be about 20° C. (i.e., approximately room temperature). At the other temperatures examined, there were almost no viable cells remaining, as determined by trypan blue exclusion, and none were able to grow and form colonies (results not shown). In these experiments, the presence (“Tre(+)”)/absence (“Tre(−)”) of trehalose appeared to have no impact on the optimum temperature.
No colonies were ever grown from cells maintained in the desiccated state at temperatures other than approximately 20° C.

[5] = test system: 12F cells; test: Effect of trehalose and vacuum on desiccation tolerance of 12F cells; assay type: cell-based, human; details: trehalose 50 mM, three days dried
Protocol: In this Example, experiments conducted to determine the effect of trehalose and vacuum on desiccation tolerance of 12F cells are described. The 12F cells were prepared at 95% confluence in five 6-well plates. On plates 1 (V+T+) and 3 (V−T+), trehalose (50 mM final concentration) was introduced by thermal shock, as described in above. Medium was then removed from each of the wells, and Plates 1 (V+T+) and 2 (V+T−) were vacuum sealed using the Magic Vac vacuum packaging system (Flaem Nuova) and maintained at room temperature. Plates 3 and 4 were sealed in bags without vacuum and also maintained at room temperature. Three days later, medium (DMEM) was added to the plates, and the plates incubated at 37° C. with 10% CO2 overnight. The next day, the cells were harvested and stained with trypan blue in order to determine the dead/live ratio.
In some experiments, the samples were divided. One portion of the sample was used in the analysis of live/dead cells using trypan blue, as described above, and the second portion was plated into fresh culture media at 25× dilution and incubated until cells grew in the culture. This allowed counting of the live cells based on their “plating efficiency.” This was considered to be the best way to estimate the ratio of dead to alive cells.

[6] = test system: Adherent Basinger cells; test: Trehalose dose response for desiccation tolerance and cytotoxicity; assay type: cell-based, human; details: 24 hours incubation
Protocol: In these experiments, the effects of trehalose concentration on desiccation tolerance were determined. Adherent Basinger cells were prepared in 6-well plates, and incubated at 37° C., with 10% CO2. When the cells reached 65-70% confluence, the cells were incubated with varying concentrations of trehalose (10 mM, 25 mM, 50 mM, 150 mM, and 500 mM) for 24 hours. The cells were exposed to thermal shock and desiccated as described above.

[7] = test system: Basinger human fibroblasts; test: Cell survival after drying with trehalose combinations and trehalose alone; assay type: cell-based
Protocol: In this Example, experiments to observe the effects of various combinations of sugars on cell viability are described. The results obtained for these combinations were then compared with the results obtained for trehalose alone. The combinations used were trehalose with glycerol, and trehalose with mannitol. Controls were also tested with no sugars, and trehalose alone. In these experiments Basinger human fibroblasts were used.

[8] = test system: Basinger fibroblast cells; test: Cytotoxicity of carbohydrates and polyols (maximum usable concentration)
Protocol: To determine whether any of these molecules have properties that would allow them to substitute for trehalose in promoting desiccation tolerance in mammalian cells, a number of carbohydrates and polyols were systematically studied. Each was tested initially to determine the maximum concentration at which they could be used without causing cytotoxicity. The ability of the different molecules to mediate desiccation tolerance was then tested at the optimal concentration for each.
Thus, in these experiments, Basinger fibroblast cells were tested in long term desiccation experiments (i.e., longer than 5 days of drying). In these experiments, Basinger cells at approximately 75% confluence were exposed to a polyol or disaccharide for 12 hours prior to removal of medium and desiccation under vacuum. Thermal shock was used to introduce the disaccharides or polyols into the cells to produce equal concentrations final of 50 mM in the cultures (with equal numbers of cells). […] FIG. 7 also provides a graphic representation of the results for various test disaccharides and polyols.

[9] = test system: 12F and Basinger cells; details: human

Compound	Cell Culture Survival (%) ([1]; Day 3 of drying)	Cell Culture Survival (%) ([1]; Day 4 of drying)	Cell Culture Survival (%) ([1]; Day 5 of drying)	Cell Culture Survival (%) ([1]; Day 6 of drying)	effectiveness in protecting the viability of the cells (in words) [1]	also measured
OC[C@H]1O[C@H](O[C@H]2[C@H](O)[C@@H](O)C(O)O[C@@H]2CO)[C@H](O)[C@@H](O)[C@@H]1O (mixture of isomers) [Maltose]	31	17	4.2	2.5	–	–
OC[C@@H](O)[C@@H](O)[C@H](O)[C@H](O)CO [Mannitol]	32	11	3.1	5.4	–	–
OC[C@@H](O)[C@@H](O)[C@H](O)[C@@H](O)CO [Sorbitol]	29	8	3.1	0.8	–	–
OC[C@H]1O[C@@](CO)(O[C@H]2O[C@H](CO)[C@@H](O)[C@H](O)[C@H]2O)[C@@H](O)[C@@H]1O [Sucrose]	39	28	9.1	7.2	as effective as trehalose	–
OC[C@H]1O[C@H](O[C@H]2O[C@H](CO)[C@@H](O)[C@H](O)[C@H]2O)[C@H](O)[C@@H](O)[C@@H]1O [Trehalose, D (+) trehalose dihydrate]	45	38	12	10.5	–	ability to mediate desiccation tolerance, singly and together (in words) [2]: roughly similar; ability of the cells to form colonies following rehydration [2]: able to maintain cellular viability; trehalose concentration at which cytotoxic effects were observed [3]: more than 50 mM; cells appearing to be "live" (FACS) ([4]; dried in the presence of trehalose, incubated at −70° C., no growth upon plating): about 4%; survival rate (in words) ([4]; incubated at room temperature in the presence of trehalose): very high; Cell Survival ([4]; storage at RT (room temperature)): 34%; Cell Survival ([4]; storage temperature 4° C.): 2.8%; Cell Survival ([4]; storage temperature 37° C.): 0.4%; Cell Survival ([4]; storage temperature −20° C.): 0.7%; Cell Survival ([4]; storage temperature −70° C.): 4%; survival rate compared to the controls (in words) [5]: much higher survival rate; trehalose concentration resulting in obvious cytotoxicity [6]: above 150 mM; optimal concentration of trehalose for desiccation tolerance ([6]; thermal shock, desiccation, 10-500 mM tested): 50 mM; Cell Survival ([7]; Day 3): 7.5; Cell Survival ([7]; Day 4): 0.8; Cell Survival ([7]; Day 5): 2.2; Cell Survival ([7]; Day 6): 1.5
OCC(O)CO [glycerol]	2.6	4.8	0.7	3.1	–	ability to mediate desiccation tolerance, singly and together (in words) [2]: roughly similar; ability of the cells to form colonies following rehydration [2]: able to maintain cellular viability; optimum concentration [8]: 3%; concentration with long-term cytotoxic effect ([8]; human): above 4%; concentration found to be toxic (very low survival, no growth upon passage) ([8]; human, 12 h): ≥ 5%; concentration toxic for cells [9]: above 5%
Dextran	0.9	2.4	1.7	0.8	completely ineffective	concentration found to be toxic (very low survival, no growth upon passage) [8]: ≥ 5%
Glycogen	40.6	21.5	14	9.5	almost equally as effective	–
